These results are taken from PubChem BioAssay (NCI).

Among the test systems are IGROV1 ovarian; CCRF-CEM leukemia; SW-620 colon; OVCAR-5 ovarian; DMS 273 small cell lung; T-47D breast; MCF7 breast; MDA-MB-231 breast; SK-OV-3 ovarian.
Experiment in all cases: inhibition of tumour cell growth, NCI panel, 48 h

Values joined by “and” are separate entries in the source; they are usually repeats but may differ in a detail not shown here. Equal values may be shown once.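 Five compound concentrations were applied to cells in 96-well plates for 48 hours; endpoints were derived by simple linear interpolation of the resulting dose-response curve. GI50 = concentration required for 50% inhibition of growth. TGI: concentration producing complete growth inhibition.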 Bounds are passed on as bounds.

With `COc1cc2c3c(c1OCc1ccccc1)NCCC3NCC2` (stereo not drawn), the TGI in the experiment on IGROV1 ovarian, with CCRF-CEM leukemia, in the experiment with SW-620 colon, with OVCAR-5 ovarian and in the experiment with DMS 273 small cell lung was greater than 100 µM in each case.

For the molecule `CCc1cccc(CC)c1NC(=O)c1ccn2c1CCc1cnc(Nc3ccc(N4CCN(C)CC4)cc3OC)nc1-2`, the GI50 is 1.55 µM with T-47D breast; 2.52 µM in the experiment on IGROV1 ovarian; 0.213 µM in the experiment with CCRF-CEM leukemia; 1.12 µM in the experiment with MCF7 breast; 2.11 µM in the experiment on MDA-MB-231 breast; 1.11 µM in the experiment with SW-620 colon. Besides, the figures for the GI50 in the experiment on SK-OV-3 ovarian and in the experiment with OVCAR-5 ovarian were 11.3 µM and 3.51 µM, respectively. In addition, the TGI came out at 4.18 µM with T-47D breast; 19.4 µM in the experiment on IGROV1 ovarian; 6.6 µM in the experiment with CCRF-CEM leukemia; 7.55 µM in the experiment with MCF7 breast; 8.29 µM with MDA-MB-231 breast; 5.94 µM in the experiment with SW-620 colon. For the same molecule, the TGI in the experiment on SK-OV-3 ovarian was found to be 23.4 µM; in the experiment with OVCAR-5 ovarian, 22 µM.

Regarding `COc1cccc2cc(-c3nc(C4CCC(C(=O)O)CC4)n4ncnc(N)c34)[nH]c12` (stereo not drawn), the GI50 in the experiment with T-47D breast is 0.045 µM and 0.0505 µM; with IGROV1 ovarian, 0.192 µM and 0.237 µM; in the experiment on CCRF-CEM leukemia, 0.247 µM and 0.816 µM; in the experiment with MCF7 breast, 0.155 µM and 0.22 µM; in the experiment on MDA-MB-231 breast it was 0.39 µM and 0.348 µM; in the experiment on SW-620 colon, 1.23 µM and 1.49 µM. For the same molecule, the GI50 was 0.223 µM and 0.278 µM in the experiment with SK-OV-3 ovarian; 0.289 µM and 0.658 µM in the experiment on OVCAR-5 ovarian. Further, the TGI was 0.442 µM and 0.356 µM with T-47D breast; 1.68 µM and 1.97 µM in the experiment with IGROV1 ovarian; 16.2 µM and > 10 µM in the experiment with CCRF-CEM leukemia; greater than 35.7 µM in the experiment on MCF7 breast; 23.5 µM and > 10 µM in the experiment on MDA-MB-231 breast; greater than 100 µM in the experiment on SW-620 colon. For the same molecule, the TGI is 1.75 µM and 2.21 µM in the experiment on SK-OV-3 ovarian; greater than 100 µM with OVCAR-5 ovarian.

For `O=C(Nc1ccc(O)c(NS(=O)(=O)c2ccc(F)cc2)c1)c1ccc(-c2ccccc2)cc1`, the GI50 was 3.07 µM in the experiment with T-47D breast; 4.65 µM with IGROV1 ovarian; 2.96 µM with CCRF-CEM leukemia; 3.85 µM in the experiment with MCF7 breast; 6.15 µM with MDA-MB-231 breast; 7.23 µM with SW-620 colon. Moreover, the GI50 was 18.8 µM in the experiment on SK-OV-3 ovarian and 13.6 µM in the experiment with OVCAR-5 ovarian. For the same molecule, the TGI in the experiment on T-47D breast was found to be 18.4 µM; in the experiment on IGROV1 ovarian, 20.5 µM; in the experiment with CCRF-CEM leukemia it was 13 µM; in the experiment with MCF7 breast it was 17.4 µM; in the experiment with MDA-MB-231 breast, 20.4 µM; with SW-620 colon, 22.2 µM. Also, the TGI in the experiment on SK-OV-3 ovarian was 44.2 µM; in the experiment on OVCAR-5 ovarian, 27 µM.

Regarding `O=C(OC(CNc1c(C(=O)c2ccccc2)c(=O)n(Cc2ccccc2)c(=O)n1Cc1ccccc1)CN1CCCCC1)c1ccccc1` (stereo not drawn), the GI50 is greater than 100 µM in the experiment on T-47D breast; 17.4 µM with IGROV1 ovarian; 16 µM in the experiment with CCRF-CEM leukemia; 20.7 µM in the experiment on MCF7 breast; 17.6 µM in the experiment on MDA-MB-231 breast; 35.7 µM in the experiment on SW-620 colon. Moreover, the figures for the GI50 in the experiment with SK-OV-3 ovarian and in the experiment with OVCAR-5 ovarian were 37.6 µM and 24.7 µM, respectively. Moreover, the TGI with T-47D breast is greater than 100 µM; in the experiment with IGROV1 ovarian it was 36.9 µM; with CCRF-CEM leukemia, 40 µM; with MCF7 breast, 39.4 µM; with MDA-MB-231 breast, 32.4 µM; in the experiment with SW-620 colon, greater than 100 µM. In addition, the TGI in the experiment on SK-OV-3 ovarian is greater than 100 µM; in the experiment on OVCAR-5 ovarian it was 63.4 µM.

Consider `COc1cccc(N2C(=O)[C@H]3[C@H]4CC(C(C)(C)C)CC[C@H]4c4c([nH]c5ccccc45)[C@H]3C2=O)c1` (stereo partly drawn), for which the TGI with IGROV1 ovarian turned out to be 39.1 µM; in the experiment on CCRF-CEM leukemia it was 29.7 µM; in the experiment on SW-620 colon it was 41 µM; in the experiment with SK-OV-3 ovarian, 35.3 µM; in the experiment on DMS 273 small cell lung, 36.8 µM.

For `NCC(=O)NC(CO)C(=O)O` (stereo not drawn), the TGI in the experiment with T-47D breast, in the experiment with IGROV1 ovarian, in the experiment on CCRF-CEM leukemia, in the experiment with MCF7 breast, in the experiment with MDA-MB-231 breast and with SW-620 colon was greater than 100 µM in each case. The TGI in the experiment on SK-OV-3 ovarian and with OVCAR-5 ovarian was greater than 100 µM throughout.

As to `O=C(NCc1cccs1)OC1CC2CCC1C2` (stereo not drawn), the TGI in the experiment on T-47D breast, in the experiment on IGROV1 ovarian, in the experiment on CCRF-CEM leukemia, with MCF7 breast, in the experiment with MDA-MB-231 breast and in the experiment with SW-620 colon was greater than 100 µM each time. For the same molecule, the TGI in the experiment with SK-OV-3 ovarian and in the experiment on OVCAR-5 ovarian was greater than 100 µM throughout.

For the molecule `O=C(O)C1CCCCC1C(=O)Nc1nc2ccccc2[nH]1` (stereo not drawn), the TGI with T-47D breast, in the experiment with IGROV1 ovarian, in the experiment with CCRF-CEM leukemia, in the experiment on MCF7 breast, in the experiment with MDA-MB-231 breast and with SW-620 colon was greater than 100 µM in each case. In addition, the TGI in the experiment on SK-OV-3 ovarian and in the experiment with OVCAR-5 ovarian was greater than 100 µM in each case.

On to `COCO[C@@H]1CC2C=Nc3cc(OCc4ccccc4)c(OC)cc3C(=O)N2C1` (stereo partly drawn), for which the GI50 was 0.154 µM with T-47D breast; 0.436 µM in the experiment with IGROV1 ovarian; 0.313 µM in the experiment on CCRF-CEM leukemia; 0.273 µM with MCF7 breast; 0.248 µM in the experiment with MDA-MB-231 breast; 0.482 µM with SW-620 colon. Moreover, the values for the GI50 in the experiment on SK-OV-3 ovarian and in the experiment with OVCAR-5 ovarian were 0.611 µM and 0.765 µM, respectively. Moreover, the TGI in the experiment on IGROV1 ovarian is 20.5 µM; with CCRF-CEM leukemia, 21.6 µM; in the experiment on MCF7 breast, greater than 35.4 µM; in the experiment on MDA-MB-231 breast, 1.57 µM; in the experiment with SW-620 colon, 8.61 µM; with SK-OV-3 ovarian, 6.2 µM. Also, the TGI with OVCAR-5 ovarian was found to be 5.79 µM.
